In patent publication US10138227B2, “Heteroaryl substituted pyridines and methods of use” (AbbVie S.à.r.l., priority 2016, dated 2018):

What was measured:
Type in all cases: cell-based
CFTR-S549N = target: T1, CFTR-S549N (Homo sapiens, UniProt P13569, S549N); assay: YFP-halide influx assay for the CFTR-S549N
T1 construct: expressed in transfected cells; HEK293 with plasmid vectors inferred from the G551D protocol, to which the assay is called similar
Text: (§1) The YFP halide influx assay measured the functionality of the cystic fibrosis Transmembrane Conductance regulator (CFTR) channels. The assay was used to evaluate the capacity of compounds to increase the channel opening of existing mutant CFTR channels in the membrane. It makes use of the observation that the yellow fluorescent protein (YFP) variant YFP H148Q, I152L, F47L has its fluorescence substantially quenched by halide ions like Cl^− and I^− (Galietta, L. J. V., Haggie, P. M., Verkman, A. S., 2001. Green fluorescent protein-based halide indicators with improved chloride and iodide affinities. FEBS Lett. 499, 220-224. doi:10.1016/S0014-5793(01)02561-3).
(§2) For this purpose, HEK293-cells were seeded in 96 well plates. During seeding, the cells were reverse-transfected with plasmid vectors that direct the expression of the CFTR G551D mutant and of the YFP reporter. Cells were incubated at 37° C., 5% CO2 for 24 hours so as to allow for sufficient expression of the CFTR protein.
(§3) The I^−-induced quenching of fluorescence was recorded immediately after injection of I^− for 7 seconds. The capacity of a compound to increase the channel opening was directly correlated with the decrease in fluorescence, and was expressed as (1-(fluorescence after 7 seconds (F)/fluorescence before injection (F0))) and an EC50 was derived from a (1−F/F0) vs compound concentration plot.
(§4) Similar YHA assays were developed for other channel gating defective or channel conductance defective CFTR mutants to determine effect of compound on channel activity. Examples of mutants are G178R, G1349D, S549N, R117H, R334W. This assay is also used for additional class I CFTR mutants, including G542X, W1282X; class II mutants including N1303K, and for class III mutants including S1251N; or wild-type CFTR.

CFTR-R117H = target: T2, CFTR-R117H (Homo sapiens, UniProt P13569, R117H); assay: YFP-halide influx assay for the CFTR-R117H
T2 construct: expressed in transfected cells; HEK293 with plasmid vectors inferred from the G551D protocol, to which the assay is called similar
T2 sequence (P13569 whole entry R117H): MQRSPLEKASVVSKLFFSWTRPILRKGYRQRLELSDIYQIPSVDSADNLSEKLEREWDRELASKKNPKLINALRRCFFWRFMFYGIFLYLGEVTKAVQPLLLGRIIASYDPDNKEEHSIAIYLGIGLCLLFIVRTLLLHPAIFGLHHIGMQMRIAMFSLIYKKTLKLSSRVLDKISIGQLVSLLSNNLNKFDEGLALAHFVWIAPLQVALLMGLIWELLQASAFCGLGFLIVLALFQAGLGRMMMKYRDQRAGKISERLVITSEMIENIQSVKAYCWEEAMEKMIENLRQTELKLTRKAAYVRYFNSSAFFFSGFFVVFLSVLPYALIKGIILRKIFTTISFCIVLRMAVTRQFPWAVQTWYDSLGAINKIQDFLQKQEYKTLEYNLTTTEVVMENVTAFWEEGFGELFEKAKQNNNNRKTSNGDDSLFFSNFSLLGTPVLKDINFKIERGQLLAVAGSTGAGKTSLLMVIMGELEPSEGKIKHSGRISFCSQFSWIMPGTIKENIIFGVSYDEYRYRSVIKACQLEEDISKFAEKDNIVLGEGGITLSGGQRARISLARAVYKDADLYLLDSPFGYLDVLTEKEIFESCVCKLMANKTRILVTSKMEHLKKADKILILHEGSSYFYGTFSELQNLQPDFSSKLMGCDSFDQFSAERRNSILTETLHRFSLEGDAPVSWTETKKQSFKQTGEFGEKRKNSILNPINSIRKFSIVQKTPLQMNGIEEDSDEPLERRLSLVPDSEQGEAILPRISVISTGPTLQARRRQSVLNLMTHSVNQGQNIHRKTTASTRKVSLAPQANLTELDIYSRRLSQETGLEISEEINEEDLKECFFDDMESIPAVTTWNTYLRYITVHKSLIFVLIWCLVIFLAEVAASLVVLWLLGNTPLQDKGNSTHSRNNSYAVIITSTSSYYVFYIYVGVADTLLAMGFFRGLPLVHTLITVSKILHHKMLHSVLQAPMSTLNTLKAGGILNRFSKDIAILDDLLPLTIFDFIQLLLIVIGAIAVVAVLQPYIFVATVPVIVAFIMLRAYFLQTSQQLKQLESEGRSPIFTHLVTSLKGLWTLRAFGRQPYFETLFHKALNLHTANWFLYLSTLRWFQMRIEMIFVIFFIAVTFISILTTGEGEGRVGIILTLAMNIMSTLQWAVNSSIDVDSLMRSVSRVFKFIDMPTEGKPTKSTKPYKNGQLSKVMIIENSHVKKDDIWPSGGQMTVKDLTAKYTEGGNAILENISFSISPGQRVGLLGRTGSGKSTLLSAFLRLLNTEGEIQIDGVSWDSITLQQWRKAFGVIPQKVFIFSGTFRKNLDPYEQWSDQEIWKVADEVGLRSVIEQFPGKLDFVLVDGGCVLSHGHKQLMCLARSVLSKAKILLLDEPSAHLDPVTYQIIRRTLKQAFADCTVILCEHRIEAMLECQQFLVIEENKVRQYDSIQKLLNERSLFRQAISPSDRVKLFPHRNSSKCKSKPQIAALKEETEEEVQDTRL
Text: as §1, §2, §3, §4

CFTR-G1349D = target: T3, CFTR-G1349D (Homo sapiens, UniProt P13569, G1349D); assay: YFP-halide influx assay for the CFTR-G1349D
T3 construct: expressed in transfected cells; HEK293 with plasmid vectors inferred from the G551D protocol, to which the assay is called similar
T3 sequence (P13569 whole entry G1349D): as the sequence (P13569 whole entry R117H) above, with H117R, G1349D counted along it
Text: as §1, §2, §3, §4

CFTR ΔF508 = target: T4, CFTR ΔF508 (Homo sapiens, UniProt P13569, DEL508-508); assay: TECC assay in CFTR ΔF508, primary bronchial epithelial cells; settings: bronchial epithelial cells from CF patients homozygous for ΔF508, treated with 3 μM VX809 or 0.15 μM GLPG2222; increase in Isc after forskolin
T4 construct: bronchial epithelial cells isolated from CF patients homozygous for the CFTR ΔF508 mutation; host or cells: primary human bronchial epithelial cells (hAEC-CF) from CF patients homozygous for ΔF508, pre-treated with the corrector VX809 or GLPG2222
T4 sequence (P13569 with tags, fused parts or gaps DEL508-508): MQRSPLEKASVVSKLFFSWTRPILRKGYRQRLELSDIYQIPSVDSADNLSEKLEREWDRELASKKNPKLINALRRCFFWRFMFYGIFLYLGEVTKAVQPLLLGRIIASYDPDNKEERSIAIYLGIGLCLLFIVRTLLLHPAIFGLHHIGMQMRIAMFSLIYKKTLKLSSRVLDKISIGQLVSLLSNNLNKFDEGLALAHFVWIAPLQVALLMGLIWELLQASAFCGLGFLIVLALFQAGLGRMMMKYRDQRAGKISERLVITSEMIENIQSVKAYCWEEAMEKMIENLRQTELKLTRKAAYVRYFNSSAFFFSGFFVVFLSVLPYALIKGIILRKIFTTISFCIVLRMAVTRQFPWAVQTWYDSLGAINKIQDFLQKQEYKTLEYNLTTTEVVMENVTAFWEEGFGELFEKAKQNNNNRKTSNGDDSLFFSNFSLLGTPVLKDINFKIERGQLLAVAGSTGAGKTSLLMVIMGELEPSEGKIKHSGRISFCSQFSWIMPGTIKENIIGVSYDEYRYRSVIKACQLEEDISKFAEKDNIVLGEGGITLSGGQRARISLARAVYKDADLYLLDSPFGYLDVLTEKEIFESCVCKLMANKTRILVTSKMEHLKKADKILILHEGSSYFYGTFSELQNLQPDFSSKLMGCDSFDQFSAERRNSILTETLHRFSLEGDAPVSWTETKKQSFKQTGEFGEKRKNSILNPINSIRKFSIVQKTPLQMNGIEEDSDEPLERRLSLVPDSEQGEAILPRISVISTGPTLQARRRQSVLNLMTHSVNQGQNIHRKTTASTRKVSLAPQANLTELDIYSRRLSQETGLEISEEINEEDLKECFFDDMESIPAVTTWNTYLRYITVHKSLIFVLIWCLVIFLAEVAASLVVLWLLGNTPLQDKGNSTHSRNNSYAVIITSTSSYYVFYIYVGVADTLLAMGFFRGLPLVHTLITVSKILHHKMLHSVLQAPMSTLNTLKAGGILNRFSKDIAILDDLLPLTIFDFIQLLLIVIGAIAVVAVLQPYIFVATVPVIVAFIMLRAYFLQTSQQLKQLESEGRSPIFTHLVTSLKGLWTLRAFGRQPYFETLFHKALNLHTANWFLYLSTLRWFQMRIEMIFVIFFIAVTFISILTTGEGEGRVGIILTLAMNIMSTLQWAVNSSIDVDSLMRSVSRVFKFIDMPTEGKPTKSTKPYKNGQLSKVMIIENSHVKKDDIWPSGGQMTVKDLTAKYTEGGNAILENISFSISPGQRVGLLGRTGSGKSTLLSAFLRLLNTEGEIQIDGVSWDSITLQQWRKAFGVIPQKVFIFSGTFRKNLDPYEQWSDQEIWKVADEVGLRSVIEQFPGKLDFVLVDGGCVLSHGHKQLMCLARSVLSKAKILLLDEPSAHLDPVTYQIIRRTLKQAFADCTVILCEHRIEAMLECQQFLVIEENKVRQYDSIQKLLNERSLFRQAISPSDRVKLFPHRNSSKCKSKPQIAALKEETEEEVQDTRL
Method: The TECC (Transepithelial Clamp Circuit, EP-design) assay measures the functionality of the cystic fibrosis Transmembrane Conductance regulator (CFTR) by measuring the short circuit current (ISC) generated over the basolateral and apical membrane of lung epithelial cells. In TECC the transepithelial potential PD and transepithelial resistance (Rt) are measured in an open circuit and transformed to ISC using Ohm's law. 24 Wells can be measured simultaneously allowing a higher throughput compared to Ussing chambers.
For this purpose, bronchial epithelial cells isolated from CF patients homozygous for the CFTR ΔF508 mutation (hAEC-CF, McGill, UNC) are plated on type IV collagen-coated Transwell® supports (Costar). Human airway epithelia are generated by provision of an air liquid interface for 21 days to form well-differentiated polarized cultures that resemble in vivo pseudo-stratified ciliated epithelium (Fulcher, M. L., Gabriel, S., Burns, K. A., Yankaskas, J. R., Randell, S. H., 2005. Well-differentiated human airway epithelial cell cultures. Methods Mol. Med. 107, 183-206). […]
When subjected to this protocol, the following values were obtained. The difference between ΔIsc measured as DMSO (baseline), and the ΔIsc measured with the compound tested.

CFTR ΔF508 mutant = target: T5, CFTR ΔF508 mutant (Homo sapiens, UniProt P13569, DEL508-508); assay: YFP-halide influx assay for the CFTR-ΔF508 mutation; settings: CFBE41o- cells expressing CFTR ΔF508 and YFP reporter, forskolin 10.67 μM; for EC50: (1-F/F0) vs concentration
T5 construct: expressed in transfected cells; host or cells: CFBE41o- cells transduced with adenoviral vectors
T5 sequence (P13569 with tags, fused parts or gaps DEL508-508): as above
Outline: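 CFBE41o- cells were adenovirally transduced with CFTR ΔF508 and YFP H148Q/I152L/F47L, then corrected 24 h at 27 °C or with a CFTR modulator 24 h at 37 °C. Iodide-induced quench was recorded over 2 min. EC50 was derived from 1-F/F0 (36 s vs pre-injection) plotted against compound concentration.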

CFTR-G178R = target: T6, CFTR-G178R (Homo sapiens, UniProt P13569, G178R); assay: YFP-halide influx assay for the CFTR-G178R
T6 construct: expressed in transfected cells; HEK293 with plasmid vectors inferred from the G551D protocol, to which the assay is called similar
T6 sequence (P13569 whole entry G178R): as the sequence (P13569 whole entry R117H) above, with H117R, G178R counted along it
Text: as §1, §2, §3, §4

CFTR G551D mutant = target: T7, CFTR G551D mutant (Homo sapiens, UniProt P13569, G551D); assay: YFP-halide influx assay for the CFTR-G551D mutation; settings: HEK293 cells expressing CFTR G551D and YFP reporter; forskolin 10.67 μM
T7 construct: expressed in transfected cells; host or cells: HEK293 cells, reverse-transfected with plasmid vectors
T7 sequence (P13569 whole entry G551D): as the sequence (P13569 whole entry R117H) above, with H117R, G551D counted along it
Text: as §1, §2, §3

T1 sequence (P13569 whole entry S549N): as the sequence (P13569 whole entry R117H) above, with H117R, S549N counted along it

Row | % Activation (CFTR-S549N) [%] | EC50 (CFTR-S549N) [nM] | % Activation (CFTR-R117H) [%] | EC50 (CFTR-R117H) [nM] | % Activation (CFTR-G1349D) [%] | EC50 (CFTR-G1349D) [nM] | EC50 (CFTR ΔF508) [nM] | % Activation (CFTR ΔF508 mutant) [%] | EC50 (CFTR ΔF508 mutant) [nM] | % Activation (CFTR-G178R) [%] | EC50 (CFTR-G178R) [nM] | % Activation (CFTR G551D mutant) [%] | EC50 (CFTR G551D mutant) [nM] | Structure (SMILES)
1 | 75.4 | 275 | 88.7 | 184 | 72.8 | 137 | 40 | 113.82 | 5.57 | 67.2 | 196 | 37.7 | > 10000 | Nc1cc(S(=O)(=O)c2ccc(OC(F)(F)F)cc2)cnc1-c1nnc(CO)o1 [Compound 1, (5-{3-amino-5-[4-(trifluoromethoxy)benzene-1-sulfonyl]pyridin-2-yl}-1,3,4-oxadiazol-2-yl)methanol]
2 |  |  |  |  |  |  | 6 | 103.69 | 1.8 |  |  | 34.3 | > 6770 | Nc1cc(S(=O)(=O)c2ccc(OC(F)(F)F)cc2)cnc1-c1nnc(C(O)C(F)(F)F)o1 (stereo not drawn) [Compound 4, 1-(5-{3-amino-5-[4-(trifluoromethoxy)benzene-1-sulfonyl]pyridin-2-yl}-1,3,4-oxadiazol-2-yl)-2,2,2-trifluoroethan-1-ol]
